Assay results as given in PubChem BioAssay (NCI).
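Cells were grown in 96-well plates and exposed to each compound for 48 hours at five concentrations; endpoints were interpolated linearly between bracketing concentrations, or set to the highest concentration if not reached. GI50 marks 50% less growth. TGI marks complete inhibition of growth.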 Where a SMILES comes first, the peptide text is derived from it. [ ]: non-standard residue; d: D form. The star is where a group is joined. ξ: configuration not given here. Decanoyl(3R-OH) = CCCCCCC[C@@H](O)CC(=O)*; ξK = NCCCCC(N)C(=O)O; ξP = O=C(O)C1CCCN1

Columns and labels:
Assay in all cases: NCI tumour cell line growth inhibition, 48 h
MDA-MB-435 = system: MDA-MB-435
HCT-116 colon = system: HCT-116 colon
UACC-257 melanoma = system: UACC-257 melanoma
U251 CNS = system: U251 CNS
SF-295 CNS = system: SF-295 CNS
EKVX NSCLC = system: EKVX NSCLC
SK-MEL-28 melanoma = system: SK-MEL-28 melanoma
SR leukemia = system: SR leukemia
786-0 renal = system: 786-0 renal
SF-539 CNS = system: SF-539 CNS
DU-145 prostate = system: DU-145 prostate
HOP-62 NSCLC = system: HOP-62 NSCLC
UO-31 renal = system: UO-31 renal
OVCAR-4 ovarian = system: OVCAR-4 ovarian
HCC-2998 colon = system: HCC-2998 colon
SK-OV-3 ovarian = system: SK-OV-3 ovarian
MCF7 breast = system: MCF7 breast
MOLT-4 leukemia = system: MOLT-4 leukemia
HCT-15 colon = system: HCT-15 colon
NCI/ADR-RES ovarian = system: NCI/ADR-RES ovarian
MDA-MB-231 breast = system: MDA-MB-231 breast
NCI-H23 lung = system: NCI-H23 lung
HL-60(TB) leukemia = system: HL-60(TB) leukemia
LOX IMVI melanoma = system: LOX IMVI melanoma
PC-3 prostate = system: PC-3 prostate
BT-549 breast = system: BT-549 breast
SF-268 CNS = system: SF-268 CNS
M14 melanoma = system: M14 melanoma
UACC-62 melanoma = system: UACC-62 melanoma
SK-MEL-2 melanoma = system: SK-MEL-2 melanoma
ACHN renal = system: ACHN renal
NCI-H460 lung = system: NCI-H460 lung
SNB-19 CNS = system: SNB-19 CNS
HS 578T breast = system: HS 578T breast
CCRF-CEM leukemia = system: CCRF-CEM leukemia
A498 renal = system: A498 renal
RXF 393 renal = system: RXF 393 renal
IGROV1 ovarian = system: IGROV1 ovarian
RPMI-8226 leukemia = system: RPMI-8226 leukemia
T-47D breast = system: T-47D breast
OVCAR-8 ovarian = system: OVCAR-8 ovarian
KM12 colon = system: KM12 colon
SW-620 colon = system: SW-620 colon
HT29 colon = system: HT29 colon
HOP-92 NSCLC = system: HOP-92 NSCLC
SK-MEL-5 melanoma = system: SK-MEL-5 melanoma
CAKI-1 renal = system: CAKI-1 renal
COLO 205 colon = system: COLO 205 colon
SNB-75 CNS = system: SNB-75 CNS
TK-10 renal = system: TK-10 renal
K-562 leukemia = system: K-562 leukemia

In the case of `CC1=NN(c2nc(N)nc(CS(C)(=O)=O)n2)C(C)(C)C1`, the TGI (MDA-MB-435) is reported as over 100 µM, the TGI (HCT-116 colon) is reported as over 100 µM and the TGI (UACC-257 melanoma) is reported as over 100 µM. It also gave a TGI (U251 CNS) of over 100 µM, a TGI (SF-295 CNS) of over 100 µM and a TGI (EKVX NSCLC) of over 100 µM. The TGI (SK-MEL-28 melanoma) was over 100 µM, the TGI (SR leukemia) was over 100 µM and the TGI (786-0 renal) was over 100 µM. The TGI (SF-539 CNS) was over 100 µM, the TGI (DU-145 prostate) was over 100 µM and the TGI (HOP-62 NSCLC) was over 100 µM. The TGI (UO-31 renal) was over 100 µM, the TGI (OVCAR-4 ovarian) was over 100 µM and the TGI (HCC-2998 colon) was over 100 µM. For the same molecule, the TGI (SK-OV-3 ovarian) was over 100 µM, the TGI (MCF7 breast) was over 100 µM and the TGI (MOLT-4 leukemia) was over 100 µM. It also gave a TGI (HCT-15 colon) of over 100 µM, a TGI (NCI/ADR-RES ovarian) of over 100 µM and a TGI (MDA-MB-231 breast) of over 100 µM. For the same molecule, the TGI (NCI-H23 lung) was over 100 µM, the TGI (HL-60(TB) leukemia) was over 100 µM and the TGI (LOX IMVI melanoma) was over 100 µM. The TGI (PC-3 prostate) was over 100 µM, the TGI (BT-549 breast) was over 100 µM and the TGI (SF-268 CNS) was over 100 µM. The TGI (M14 melanoma) was over 100 µM, the TGI (UACC-62 melanoma) was over 100 µM and the TGI (SK-MEL-2 melanoma) was over 100 µM. The TGI (ACHN renal) was over 100 µM, the TGI (NCI-H460 lung) was over 100 µM and the TGI (SNB-19 CNS) was over 100 µM. It also gave a TGI (HS 578T breast) of over 100 µM, a TGI (CCRF-CEM leukemia) of over 100 µM and a TGI (A498 renal) of over 100 µM. The TGI (RXF 393 renal) was over 100 µM, the TGI (IGROV1 ovarian) was over 100 µM and the TGI (RPMI-8226 leukemia) was over 100 µM. It also gave a TGI (T-47D breast) of over 100 µM, a TGI (OVCAR-8 ovarian) of over 100 µM and a TGI (KM12 colon) of over 100 µM. It also gave a TGI (SW-620 colon) of over 100 µM, a TGI (HT29 colon) of over 100 µM and a TGI (HOP-92 NSCLC) of over 100 µM. It also gave a TGI (SK-MEL-5 melanoma) of over 100 µM, a TGI (CAKI-1 renal) of over 100 µM and a TGI (COLO 205 colon) of over 100 µM. For the same molecule, the TGI (SNB-75 CNS) was over 100 µM, the TGI (TK-10 renal) was over 100 µM and the TGI (K-562 leukemia) was over 100 µM.

With `CCCCCCC[C@@H](O)CC(=O)N[C@H](CCCCN)C(=O)N[C@H](Cc1c[nH]c2ccccc12)C(=O)NC(CCCCN)C(=O)N[C@H](CC(C)C)C(=O)N[C@H](Cc1ccccc1)C(=O)N[C@H](CCCCN)C(=O)N[C@H](CCCCN)C(=O)N[C@H](CC(C)C)C(=O)N1CCCC1C(=O)N[C@H](CCCCN)C(=O)N[C@H](Cc1ccccc1)C(=O)N[C@H](CC(C)C)C(=O)N[C@H](Cc1c[nH]cn1)C(=O)N[C@H](CC(C)C)C(=O)N[C@H](C)C(=O)N[C@H](CCCCN)C(=O)N[C@H](CCCCN)C(=O)N[C@H](Cc1ccccc1)C(=O)O` (stereo partly drawn) ({Decanoyl(3R-OH)}-[dK][dW][ξK][dL][dF][dK][dK][dL][ξP][dK][dF][dL][dH][dL][dA][dK][dK][dF]-OH) the GI50 (DU-145 prostate) was 0.607 µM, the TGI (DU-145 prostate) was 1.12 µM and the GI50 (HL-60(TB) leukemia) was 0.743 µM. For the same molecule, the TGI (HL-60(TB) leukemia) was 1.71 µM, the GI50 (OVCAR-8 ovarian) was 0.814 µM and the TGI (OVCAR-8 ovarian) was 33.3 µM.
